For 29 compounds, pest or weed control results are on record in patent publication US10173971B2, “Picolinamides with fungicidal activity” (DOW AGROSCIENCES LLC, priority 2014, dated 2019).

Where two headings read alike, the source gives them in different places.

The subject of one experiment is Puccinia triticina. As to the kind of experiment: Fungicidal activity: wheat brown rust (PUCCRT), wheat seedlings, booth sprayer to run-off or track spray. The experiment is classed as in vivo. As to conditions: for pest or weed control at 100 ppm: High-Volume Cereal Activity at 100 ppm; for pest or weed control at 121.5 g/ha: Low-Volume Cereal Activity at 121.5 g/H.

For a further experiment, the system named is Zymoseptoria tritici. As to the kind of experiment: Fungicidal activity: leaf blotch of wheat (SEPTTR), wheat seedlings, booth sprayer to run-off or track spray. The experiment is classed as in vivo. The following applies: for pest or weed control at 100 ppm: High-Volume Cereal Activity at 100 ppm; for pest or weed control at 121.5 g/ha: Low-Volume Cereal Activity at 121.5 g/H.

[1] abbreviates: 24 h, 1 Day Protectant, read-out: PUCCRT 1DP.
Where [2] appears, read: 24 h, 1 Day Protectant, read-out: SEPTTR 1DP.
The mark [3] stands for this setting: 3DC (Day Curative), read-out: SEPTTR 3DC.
[4] abbreviates: 72 h, 3 Day Curative, read-out: PUCCRT 3DC.
The mark [5] stands for this setting: 72 h, 3 Day Curative, read-out: SEPTTR 3DC.

Consider `CCCO[C@@H](CC)[C@@H](Cc1ccccc1)[C@H](C)OC(=O)C(C)(C)NC(=O)c1nccc(OC)c1OCOC(C)=O` [compound 170], for which the pest or weed control at 100 ppm in the experiment with Puccinia triticina (setting [1]), in the experiment on Zymoseptoria tritici (setting [2]) and with Zymoseptoria tritici (setting [3]) was 0 to 80% throughout.
In the case of `CCCOC[C@@H](Cc1ccccc1)[C@H](C)OC(=O)C(C)(C)NC(=O)c1nccc(OC)c1OCOC(C)=O` [compound 171], the pest or weed control at 100 ppm in the experiment with Puccinia triticina (3DC (Day Curative), read-out: PUCCRT 3DC) is 0 to 80%; in the experiment with Zymoseptoria tritici (setting [2]) it was 0 to 80%; in the experiment on Zymoseptoria tritici (setting [3]), 0 to 80%.
In the case of `CC[C@H](CCCc1ccccc1)[C@@H](CC(C)C)[C@H](C)OC(=O)C(C)NC(=O)c1nccc(OC)c1OC(C)=O` (stereo partly shown) [compound 172], the pest or weed control at 121.5 g/ha lay in the range of 80 to 100% in the experiment on Puccinia triticina (setting [1]), 0 to 80% in the experiment with Puccinia triticina (setting [4]), 0 to 80% with Zymoseptoria tritici (setting [2]) and 0 to 80% in the experiment with Zymoseptoria tritici (setting [5]).
For `CC[C@H](CC1CC1)[C@@H](Cc1ccccc1)[C@H](C)OC(=O)[C@H](C)NC(=O)c1nccc(OC)c1OCOC(C)=O` [compound 173], the pest or weed control at 121.5 g/ha in the experiment on Puccinia triticina (setting [1]) is 80 to 100%; in the experiment with Puccinia triticina (setting [4]), 0 to 80%; with Zymoseptoria tritici (setting [2]), 80 to 100%; with Zymoseptoria tritici (setting [5]), 80 to 100%.
As for `CC[C@H](Cc1ccccc1)[C@@H](Cc1ccc(F)cc1)[C@H](C)OC(=O)[C@H](C)NC(=O)c1nccc(OC)c1OCOC(C)=O` [compound 174], the pest or weed control at 121.5 g/ha fell in the range of 80 to 100% in the experiment with Puccinia triticina (setting [1]), 0 to 80% in the experiment with Puccinia triticina (setting [4]), 80 to 100% in the experiment on Zymoseptoria tritici (setting [2]) and 0 to 80% in the experiment on Zymoseptoria tritici (setting [5]).
For `CCCOC[C@@H](Cc1ccccc1)[C@H](C)OC(=O)CNC(=O)c1nccc(OC)c1OCOC(C)=O` [compound 175], the pest or weed control at 121.5 g/ha in the experiment on Puccinia triticina (setting [1]) was in the range of 80 to 100%; in the experiment with Puccinia triticina (setting [4]) it was 80 to 100%; in the experiment with Zymoseptoria tritici (setting [5]) it was 0 to 80%.
For the compound `CCOC[C@H](Oc1ccc(C)cc1)[C@@H](Cc1ccc(F)cc1)[C@H](C)OC(=O)[C@H](C)NC(=O)c1nccc(OC)c1OCOC(C)=O` [compound 177], the pest or weed control at 121.5 g/ha with Puccinia triticina (setting [1]) was 80 to 100%; in the experiment with Puccinia triticina (setting [4]), 0 to 80%; with Zymoseptoria tritici (setting [2]) it was 80 to 100%; with Zymoseptoria tritici (setting [5]) it was 0 to 80%.
As to `C=C[C@H](Cc1ccc(C(F)(F)F)cc1)[C@@H](Cc1ccc(F)cc1)[C@H](C)OC(=O)[C@H](COC)NC(=O)c1nccc(OC)c1OC(C)=O` [compound 178], the pest or weed control at 121.5 g/ha with Puccinia triticina (setting [1]), in the experiment on Puccinia triticina (setting [4]), in the experiment on Zymoseptoria tritici (setting [2]) and with Zymoseptoria tritici (setting [5]) was 0 to 80% throughout.
In the case of `C=C[C@H](Cc1ccc(C(F)(F)F)cc1)[C@@H](Cc1ccc(F)cc1)[C@H](C)OC(=O)[C@H](C)NC(=O)c1nccc(OC)c1OC(C)=O` [compound 179], the pest or weed control at 121.5 g/ha in the experiment with Puccinia triticina (setting [1]) lay within 80 to 100%; in the experiment with Zymoseptoria tritici (setting [2]), 0 to 80%; in the experiment with Zymoseptoria tritici (setting [5]), 80 to 100%.
With `C=C[C@H](Cc1ccc(C(F)(F)F)cc1)[C@@H](Cc1ccc(F)cc1)[C@H](C)OC(=O)CNC(=O)c1nccc(OC)c1OC(C)=O` [compound 180], the pest or weed control at 121.5 g/ha in the experiment with Puccinia triticina (setting [1]) and in the experiment with Zymoseptoria tritici (setting [2]) was 0 to 80% throughout.
With `CC[C@H](Cc1ccc(C(F)(F)F)cc1)[C@@H](Cc1ccc(F)cc1)[C@H](C)OC(=O)[C@H](COC)NC(=O)c1nccc(OC)c1OC(C)=O` [compound 181], the pest or weed control at 121.5 g/ha with Puccinia triticina (setting [1]) was in the range of 80 to 100%; in the experiment on Puccinia triticina (setting [4]), 0 to 80%; in the experiment on Zymoseptoria tritici (setting [2]) it was 0 to 80%; in the experiment on Zymoseptoria tritici (setting [5]), 0 to 80%.
For the compound `CCC[C@@H](Cc1ccccc1)[C@H](C)OC(=O)[C@H](C)NC(=O)c1nccc(OC)c1OCOC(C)=O` [compound 184], the pest or weed control at 121.5 g/ha in the experiment with Puccinia triticina (setting [1]), in the experiment with Puccinia triticina (setting [4]), with Zymoseptoria tritici (setting [2]) and in the experiment on Zymoseptoria tritici (setting [5]) was 80 to 100% each time.
Regarding `COC(=O)[C@@H](Cc1ccccc1)[C@H](C)OC(=O)[C@H](C)NC(=O)c1nccc(OC)c1OCOC(C)=O` [compound 185], the pest or weed control at 121.5 g/ha in the experiment on Puccinia triticina (setting [1]), with Puccinia triticina (setting [4]) and in the experiment on Zymoseptoria tritici (setting [2]) was 0 to 80% throughout.
`CC[C@H](Cc1ccccc1)[C@@H](Cc1ccc(OC(F)(F)F)cc1)[C@H](C)OC(=O)[C@H](C)NC(=O)c1nccc(OC)c1OCOC(C)=O` [compound 187]: the pest or weed control at 121.5 g/ha in the experiment on Puccinia triticina (setting [1]), in the experiment on Puccinia triticina (setting [4]), in the experiment on Zymoseptoria tritici (setting [2]) and in the experiment with Zymoseptoria tritici (setting [5]) was 0 to 80% throughout.
For the compound `CCCC[C@@H]([C@H](C)OC(=O)[C@H](C)NC(=O)c1nccc(OC)c1OCOC(C)=O)[C@H](CC)Oc1ccccc1` [compound 188], the pest or weed control at 121.5 g/ha in the experiment on Puccinia triticina (setting [1]), in the experiment with Puccinia triticina (setting [4]), with Zymoseptoria tritici (setting [2]) and in the experiment on Zymoseptoria tritici (setting [5]) was 80 to 100% throughout.
Take `CCCC[C@@H]([C@H](C)OC(=O)[C@H](C)NC(=O)c1nccc(OC)c1OCOC(C)=O)[C@@H](CC)Oc1ccccc1` [compound 189]: the pest or weed control at 121.5 g/ha in the experiment with Puccinia triticina (setting [1]) was 80 to 100%; in the experiment with Puccinia triticina (setting [4]) it was 80 to 100%; with Zymoseptoria tritici (setting [2]) it was 80 to 100%; in the experiment on Zymoseptoria tritici (setting [5]) it was 0 to 80%.
Consider `CCCC[C@@H]([C@H](C)OC(=O)[C@H](C)NC(=O)c1nccc(OC)c1OC(=O)O)[C@@H](CC)Oc1ccccc1` [compound 190], for which the pest or weed control at 121.5 g/ha with Puccinia triticina (setting [1]), in the experiment with Puccinia triticina (setting [4]), in the experiment on Zymoseptoria tritici (setting [2]) and in the experiment with Zymoseptoria tritici (setting [5]) was 80 to 100% in each case.
As for `CC[C@H](Oc1ccccc1)[C@@H](Cc1ccccc1)[C@H](C)OC(=O)[C@H](C)NC(=O)c1nccc(OC)c1OCOC(C)=O` [compound 191], the pest or weed control at 121.5 g/ha in the experiment with Puccinia triticina (setting [1]), with Puccinia triticina (setting [4]), in the experiment on Zymoseptoria tritici (setting [2]) and in the experiment with Zymoseptoria tritici (setting [5]) was 80 to 100% in each case.
On to `CC[C@@H](Oc1ccccc1)[C@@H](Cc1ccccc1)[C@H](C)OC(=O)[C@H](C)NC(=O)c1nccc(OC)c1OCOC(C)=O` [compound 192], for which the pest or weed control at 121.5 g/ha in the experiment with Puccinia triticina (setting [1]), in the experiment with Puccinia triticina (setting [4]), with Zymoseptoria tritici (setting [2]) and in the experiment on Zymoseptoria tritici (setting [5]) was 80 to 100% each time.
Regarding `CC[C@H](Oc1ccccc1)[C@@H](Cc1ccccc1)[C@H](C)OC(=O)[C@H](C)NC(=O)c1nccc(OC)c1OC(C)=O` [compound 193], the pest or weed control at 121.5 g/ha in the experiment with Puccinia triticina (setting [1]) was in the range of 80 to 100%; with Puccinia triticina (setting [4]), 80 to 100%; in the experiment on Zymoseptoria tritici (setting [2]) it was 80 to 100%; in the experiment with Zymoseptoria tritici (setting [5]) it was 0 to 80%.
In the case of `CC[C@@H](Oc1ccccc1)[C@@H](Cc1ccccc1)[C@H](C)OC(=O)[C@H](C)NC(=O)c1nccc(OC)c1OC(C)=O` [compound 194], the pest or weed control at 121.5 g/ha in the experiment with Puccinia triticina (setting [1]) was 80 to 100%; with Puccinia triticina (setting [4]), 0 to 80%; with Zymoseptoria tritici (setting [2]), 80 to 100%; in the experiment with Zymoseptoria tritici (setting [5]), 80 to 100%.
Consider `COc1ccnc(C(=O)N[C@@H](C)C(=O)O[C@@H](C)[C@H](Cc2ccccc2)c2ccccc2)c1OCOC(C)=O` [compound 195], for which the pest or weed control at 121.5 g/ha in the experiment with Puccinia triticina (setting [1]), in the experiment on Puccinia triticina (setting [4]), in the experiment with Zymoseptoria tritici (setting [2]) and with Zymoseptoria tritici (setting [5]) was 80 to 100% in each case.
Consider `COc1ccnc(C(=O)N[C@@H](C)C(=O)O[C@@H](C)[C@H](Cc2ccccc2)c2ccccc2)c1OC(C)=O` [compound 196], for which the pest or weed control at 121.5 g/ha lay within 80 to 100% in the experiment with Puccinia triticina (setting [1]), 0 to 80% in the experiment on Puccinia triticina (setting [4]), 80 to 100% with Zymoseptoria tritici (setting [2]) and 80 to 100% with Zymoseptoria tritici (setting [5]).
Consider `CCCC[C@H](c1ccccc1)[C@H](C)OC(=O)[C@H](C)NC(=O)c1nccc(OC)c1OC(C)=O` [compound 197], for which the pest or weed control at 121.5 g/ha with Puccinia triticina (setting [1]), in the experiment with Puccinia triticina (setting [4]), with Zymoseptoria tritici (setting [2]) and in the experiment on Zymoseptoria tritici (setting [5]) was 80 to 100% throughout.
For the compound `CCCC[C@H](c1ccccc1)[C@H](C)OC(=O)[C@H](C)NC(=O)c1nccc(OC)c1OC(=O)C(C)C` [compound 198], the pest or weed control at 121.5 g/ha is 0 to 80% with Puccinia triticina (setting [1]), 0 to 80% in the experiment on Puccinia triticina (setting [4]), 80 to 100% with Zymoseptoria tritici (setting [2]) and 80 to 100% in the experiment on Zymoseptoria tritici (setting [5]).
Consider `CCCC[C@H](c1ccccc1)[C@H](C)OC(=O)[C@H](C)NC(=O)c1nccc(OC)c1OCOC(C)=O` [compound 199], for which the pest or weed control at 121.5 g/ha in the experiment with Puccinia triticina (setting [1]), with Puccinia triticina (setting [4]), in the experiment on Zymoseptoria tritici (setting [2]) and in the experiment on Zymoseptoria tritici (setting [5]) was 80 to 100% each time.
Take `CCCC[C@H](c1ccccc1)[C@H](C)OC(=O)[C@H](C)NC(=O)c1nccc(OC)c1OCOC(=O)C(C)C` [compound 200]: the pest or weed control at 121.5 g/ha in the experiment with Puccinia triticina (setting [1]), with Puccinia triticina (setting [4]), with Zymoseptoria tritici (setting [2]) and in the experiment with Zymoseptoria tritici (setting [5]) was 80 to 100% throughout.
As for `COc1ccnc(C(=O)N[C@@H](C)C(=O)O[C@@H](C)[C@H](Cc2ccc(Cl)cc2)c2ccccc2)c1OC(C)=O` [compound 201], the pest or weed control at 121.5 g/ha in the experiment with Puccinia triticina (setting [1]) fell in the range of 0 to 80%; with Puccinia triticina (setting [4]), 0 to 80%; with Zymoseptoria tritici (setting [2]) it was 80 to 100%; in the experiment with Zymoseptoria tritici (setting [5]) it was 0 to 80%.
For `COc1ccnc(C(=O)N[C@@H](C)C(=O)O[C@@H](C)[C@H](Cc2ccc(Cl)cc2)c2ccccc2)c1OC(=O)C(C)C` [compound 202], the pest or weed control at 121.5 g/ha with Puccinia triticina (setting [1]) lay within 0 to 80%; in the experiment with Puccinia triticina (setting [4]), 0 to 80%; with Zymoseptoria tritici (setting [2]), 80 to 100%; in the experiment on Zymoseptoria tritici (setting [5]), 80 to 100%.
